Results reported in patent US10294202B2, “Pyrrolidinones as herbicides” (FMC Corporation, priority 2013, dated 2019).

Tests used:
panicum, fall = test: Test E preemergence herbicide test; assay type: in vivo, Panicum dichotomiflorum; set-up: key: 0 = no effect, 100 = complete control
From the text: (§1) Seeds of plant species selected from corn (Zea mays), soybean (Glycine max), velvetleaf (Abutilon theophrasti), lambsquarters (Chenopodium album), wild poinsettia (Euphorbia heterophylla), pigweed, palmer (palmer pigweed, Amaranthus palmeri), waterhemp (common waterhemp, Amaranthus rudis), surinam grass (Brachiaria decumbens), crabgrass, large (large crabgrass, Digitaria sanguinalis), crabgrass, Brazil (Brazilian crabgrass, Digitaria horizontalis), panicum, fall (fall panicum, Panicum dichotomiflorum), foxtail, giant (giant foxtail, Setaria faberii), foxtail, green (green foxtail, Setaria viridis), goosegrass (Eleusine indica), johnsongrass (Sorghum halepense), ragweed (common ragweed, Ambrosia elatior), barnyardgrass (Echinochloa crus-galli), sandbur (southern sandbur, Cenchrus echinatus), arrowleaf […] rhombifolia), ryegrass, Italian (Italian ryegrass, Lolium multiflorum), dayflower, VA (Virginia dayflower, Commelina virginica), field bindweed (Convolvulus arvensis), morningglory (Ipomoea coccinea), nightshade (eastern black nightshade, Solanum ptycanthum), kochia (Kochia scoparia), nutsedge, yellow (yellow nutsedge, Cyperus esculentus), cocklebur (common cocklebur, Xanthium strumarium), smartweed (ladysthumb smartweed, Polygonum Persicaria) and beggarticks (hairy beggarticks, Bidens pilosa), were planted into a silt loam soil and treated preemergence with test chemicals formulated in a non-phytotoxic solvent mixture which included a surfactant. Treated plants and controls were maintained in a greenhouse for 21 days, after which time all species were compared to controls and visually evaluated. Plant response ratings, summarized in Table E, are based on a scale of 0 to 100 where 0 is no effect and 100 is complete control. A dash (-) response means no test result.

surinam grass = test: Test E preemergence herbicide test; assay type: in vivo, Brachiaria decumbens; set-up: key: 0 = no effect, 100 = complete control
From the text: as §1

kochia = test: Test D pre-/postemergence herbicide test; assay type: in vivo, Kochia scoparia; conditions: for Plant response rating: Kochia, scale 0 to 100; for Plant response rating, Kochia: scale 0 to 100 (0 no effect, 100 complete control)
From the text: (§2) Seeds of plant species selected from bluegrass (annual bluegrass, Poa annua), blackgrass (Alopecurus myosuroides), canarygrass (littleseed canarygrass, Phalaris minor), chickweed (common chickweed, Stellaria media), galium (catchweed bedstraw, Galium aparine), bromegrass, downy (downy bromegrass, Bromus tectorum), field poppy (Papaver rhoeas), field violet (Viola arvensis), foxtail, green (green foxtail, Setaria viridis), deadnettle (henbit deadnettle, Lamium amplexicaule), ryegrass, Italian (Italian ryegrass, Lolium multiflorum), kochia (Kochia scoparia), lambsquarters (Chenopodium album), oilseed rape (Brassica napus), pigweed (Amaranthus retroflexus), chamomile (scentless chamomile, Matricaria inodora), Russian thistle (Salsola kali), speedwell (bird's-eye speedwell, Veronica persica), barley, spring (spring barley, Hordeum vulgare), wheat, spring (spring wheat, Triticum aestivum), buckwheat, wild (wild buckwheat, Polygonum convolvulus), mustard, wild (wild mustard, Sinapis arvensis), oat, wild (wild oat, Avena fatua), radish, wild (wild radish, Raphanus raphanistrum), […]), barley, winter (winter barley, Hordeum vulgare), and wheat, winter (winter wheat, Triticum aestivum) were planted into a silt loam soil and treated preemergence with test chemicals formulated in a non-phytotoxic solvent mixture which included a surfactant. At the same time, these species were planted in pots containing Redi-Earth® planting medium (Scotts Company, 14111 Scottslawn Road, Marysville, Ohio 43041) comprising spaghnum peat moss, vermiculite, wetting agent and starter nutrients and treated with postemergence applications of the test chemicals formulated in the same manner. Plants ranged in height from 2 to 18 cm (1- to 4-leaf stage). Treated plants and controls were maintained in a controlled growth environment for 7 to 21 days after which time all species were compared to controls and visually evaluated. Plant response ratings, summarized in Table D, are based on a scale of 0 to 100 where 0 is no effect and 100 is complete control. A dash (-) response means no test result.

ryegrass, Italian = test: Test E preemergence herbicide test; assay type: in vivo, Lolium multiflorum; set-up: key: 0 = no effect, 100 = complete control
From the text: as §1

bromegrass, downy = test: Test D pre-/postemergence herbicide test; assay type: in vivo, Bromus tectorum; conditions: for Plant response rating: Bromegrass, Downy, scale 0 to 100; for Plant response rating, Bromegrass, Downy: scale 0 to 100 (0 no effect, 100 complete control)
From the text: as §2

cupgrass, woolly = test: Test C pre-/postemergence herbicide test; assay type: in vivo, Eriochloa villosa
From the text: Seeds of plant species selected from blackgrass (Alopecurus myosuroides), ryegrass, Italian (Italian ryegrass, Lolium multiflorum), wheat (winter wheat, Triticum aestivum), galium (catchweed bedstraw, Galium aparine), corn (Zea mays), crabgrass, large (large crabgrass, Digitaria sanguinalis), foxtail, giant (giant foxtail, Setaria faberii), johnsongrass (Sorghum halepense), lambsquarters (Chenopodium album), morningglory (Ipomoea coccinea), nutsedge, yellow (yellow nutsedge, Cyperus esculentus), pigweed (Amaranthus retroflexus), ragweed (common ragweed, Ambrosia elatior), soybean (Glycine max), barnyardgrass (Echinochloa crus-galli), oilseed rape (Brassica napus), waterhemp (common waterhemp, Amaranthus rudis), kochia (Kochia scoparia), oat, wild (wild oat, Avena fatua), surinam grass (Brachiaria decumbens), foxtail, green (green foxtail, Setaria viridis), goosegrass (Eleusine indica), bromegrass, downy (downy bromegrass, Bromus tectorum), nightshade (eastern black nightshade, Solanum ptycanthum), cocklebur (common cocklebur, Xanthium strumarium), cupgrass, woolly (woolly cupgrass, Eriochloa villosa), bermudagrass (Cynodon dactylon), sunflower, (common oilseed sunflower, Helianthus annuus), Russian thistle (Salsola kali) and velvetleaf (Abutilon theophrasti) were planted into a blend of loam soil and sand and treated preemergence with test chemicals formulated in a non-phytotoxic solvent mixture which included a surfactant. At the same time, plants selected from these crop and weed species and also barley (winter barley, Hordeum vulgare), […]), chickweed (common chickweed, Stellaria media), deadnettle (henbit deadnettle, Lamium amplexicaule), and canarygrass (littleseed canarygrass, Phalaris minor) were planted in pots containing Redi-Earth® planting medium (Scotts Company, 14111 Scottslawn Road, Marysville, Ohio 43041) comprising spaghnum peat moss, vermiculite, wetting agent and starter nutrients and treated with postemergence applications of test chemicals formulated in the same manner. Plants ranged in height from 2 to 18 cm (1- to 4-leaf stage) for postemergence treatments. Treated plants and controls were maintained in a greenhouse for 13 to 15 days, after which time all species were compared to controls and visually evaluated. Plant response ratings, summarized in Table C, are based on a scale of 0 to 100 where 0 is no effect and 100 is complete control. A dash (-) response means no test result.

SMILES | Plant response rating, Panicum, Fall (panicum, fall; 31 g ai/ha) | Plant response rating, Panicum, Fall (panicum, fall; 62 g ai/ha) | Plant response rating, Panicum, Fall (panicum, fall; 125 g ai/ha) | Plant response rating, Panicum, Fall (panicum, fall; 250 g ai/ha) | Plant response rating, Surinam Grass (surinam grass; 31 g ai/ha) | Plant response rating, Surinam Grass (surinam grass; 125 g ai/ha) | Plant response rating, Surinam Grass (surinam grass; 250 g ai/ha) | Plant response rating (kochia; Postemergence, 31 g ai/ha) | Plant response rating (kochia; Postemergence, 62 g ai/ha) | Plant response rating (kochia; Postemergence, 125 g ai/ha) | Plant response rating (kochia; Postemergence, 250 g ai/ha) | Plant response rating, Kochia (kochia; Preemergence, 62 g ai/ha) | Plant response rating, Kochia (kochia; Preemergence, 31 g ai/ha) | Plant response rating (kochia; Preemergence, 125 g ai/ha) | Plant response rating (kochia; Preemergence, 250 g ai/ha) | Plant response rating, Ryegrass, Italian (ryegrass, Italian; 31 g ai/ha) | Plant response rating, Ryegrass, Italian (ryegrass, Italian; 62 g ai/ha) | Plant response rating, Ryegrass, Italian (ryegrass, Italian; 125 g ai/ha) | Plant response rating, Ryegrass, Italian (ryegrass, Italian; 250 g ai/ha) | Plant response rating (bromegrass, downy; Postemergence, 31 g ai/ha) | further results
O=C1NCC(c2ccc(C(F)(F)F)cc2)C1C(=O)Nc1cccc(F)c1F (racemic) [Compound 202] | 0 | 0 | 50 | 85 | 20 | 65 | 95 | 70 | 70 | 75 | 75 | 85 | 85 | 85 | 85 | 0 | 0 | 25 | 50 | 0 | Plant response rating (bromegrass, downy; Postemergence, 62 g ai/ha): 0; Plant response rating (bromegrass, downy; Postemergence, 125 g ai/ha): 5; Plant response rating (bromegrass, downy; Postemergence, 250 g ai/ha): 15; Plant response rating, Bromegrass, Downy (bromegrass, downy; Preemergence, 62 g ai/ha): 0; Plant response rating, Bromegrass, Downy (bromegrass, downy; Preemergence, 31 g ai/ha): 0; Plant response rating (bromegrass, downy; Preemergence, 125 g ai/ha): 0; Plant response rating (bromegrass, downy; Preemergence, 250 g ai/ha): 20
O=C1NCC(c2ccc(OC(F)F)cc2)C1C(=O)Nc1cccc(F)c1F (racemic) [Compound 350] | 0 | 0 | 0 | 0 | 0 | 50 | 65 | – | – | – | – | – | – | – | – | 0 | 25 | 20 | 35 | – | Plant response rating, Surinam Grass (surinam grass; 62 g ai/ha): 0
O=C1NCC(c2ccc(Cl)c(F)c2)C1C(=O)Nc1cccc(F)c1F (stereo not shown) [Compound 52] | – | – | – | – | – | – | – | 0 | 20 | 25 | 35 | 20 | 20 | 20 | 40 | – | – | – | – | 0 | Plant response rating (kochia; Postemergence, 16 g ai/ha): 0; Plant response rating, Kochia (kochia; Preemergence, 16 g ai/ha): 0; Plant response rating, Cupgrass, Woolly (cupgrass, woolly; Postemergence, 31 g ai/ha, scale 0 (no effect) to 100 (complete control)): 0; Plant response rating, Cupgrass, Woolly (cupgrass, woolly; Postemergence, 62 g ai/ha, scale 0 to 100 (0 no effect, 100 complete control)): 5; Plant response rating, Cupgrass, Woolly (cupgrass, woolly; Postemergence, 125 g ai/ha, scale 0 to 100 (0 no effect, 100 complete control)): 5; Plant response rating, Cupgrass, Woolly (cupgrass, woolly; Postemergence, 250 g ai/ha, scale 0 to 100 (0 no effect, 100 complete control)): 10; Plant response rating, Cupgrass, Woolly (cupgrass, woolly; Preemergence, 62 g ai/ha, scale 0 to 100): 70; Plant response rating, Cupgrass, Woolly (cupgrass, woolly; Preemergence, 125 g ai/ha, scale 0 to 100 (0 no effect, 100 complete control)): 75; Cupgrass, Woolly plant response rating (cupgrass, woolly; Preemergence, 31 g ai/ha, scale 0 to 100 (0 no effect, 100 complete control)): 40; Plant response rating, Cupgrass, Woolly (cupgrass, woolly; Preemergence, 250 g ai/ha, scale 0 to 100 (0 no effect, 100 complete control)): 85; Plant response rating (bromegrass, downy; Postemergence, 16 g ai/ha): 0; Plant response rating (bromegrass, downy; Postemergence, 62 g ai/ha): 0; Plant response rating (bromegrass, downy; Postemergence, 125 g ai/ha): 0; Plant response rating (bromegrass, downy; Postemergence, 250 g ai/ha): 0; Plant response rating, Bromegrass, Downy (bromegrass, downy; Preemergence, 62 g ai/ha): 0; Plant response rating, Bromegrass, Downy (bromegrass, downy; Preemergence, 16 g ai/ha): 0; Plant response rating, Bromegrass, Downy (bromegrass, downy; Preemergence, 31 g ai/ha): 0; Plant response rating (bromegrass, downy; Preemergence, 125 g ai/ha): 0; Plant response rating (bromegrass, downy; Preemergence, 250 g ai/ha): 0
